# Measurements from ChEMBL document CHEMBL1201862, “PubChem BioAssay data set” (2004).
#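 Step 1: Grow cells in 96-well plates. Step 2: Expose to compound for 48 hours at 5 concentrations. Step 3: Interpolate endpoints linearly; if unreached, use highest concentration. Here, GI50 denotes the concentration required for 50% inhibition of growth.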 Calls of active or inactive are those of the source. Rule as the data show it: active = GI50 up to about 1.1 µM and inactive = higher.
# Assays:
# Experiment in all cases: NCI anticancer screen, dose series, 48 h
# 786-0 = test system: 786-0
# A498 = test system: A498
# BT-549 = test system: BT-549
# HCT-116 = test system: HCT-116
# HOP-62 = test system: HOP-62
# HT-29 = test system: HT-29
# K562 = test system: K562
# MCF7 = test system: MCF7
# MDA-N = test system: MDA-N
# MOLT-4 = test system: MOLT-4
# NCI/ADR-RES = test system: NCI/ADR-RES
# OVCAR-3 = test system: OVCAR-3
# OVCAR-4 = test system: OVCAR-4
# OVCAR-5 = test system: OVCAR-5
# PC-3 = test system: PC-3
# SR = test system: SR
# SW-620 = test system: SW-620
# T47D = test system: T47D
# U-251 = test system: U-251
# UO-31 = test system: UO-31
SMILES,GI50 (786-0),GI50 (A498),GI50 (BT-549),GI50 (HCT-116),GI50 (HOP-62),GI50 (HT-29),GI50 (K562),GI50 (MCF7),GI50 (MDA-N),GI50 (MOLT-4),GI50 (NCI/ADR-RES),GI50 (OVCAR-3),GI50 (OVCAR-4),GI50 (OVCAR-5),GI50 (PC-3),GI50 (SR),GI50 (SW-620),GI50 (T47D),GI50 (U-251),GI50 (UO-31)
O=C(CCn1ccnc1[N+](=O)[O-])NCCCn1ccnc1[N+](=O)[O-],> 100 µM (inactive),> 100 µM (inactive),> 100 µM (inactive),> 100 µM (inactive),> 100 µM (inactive),> 100 µM (inactive),> 100 µM (inactive),> 100 µM (inactive),> 100 µM (inactive),> 100 µM (inactive),> 100 µM (inactive),> 100 µM (inactive),> 100 µM (inactive),> 100 µM (inactive),> 100 µM (inactive),> 100 µM (inactive),> 100 µM (inactive),> 100 µM (inactive),> 100 µM (inactive),> 100 µM (inactive)
O=C1c2cc([N+](=O)[O-])ccc2-c2cccc(F)c21,> 100 µM (inactive),65.6 µM (inactive),> 100 µM (inactive),67.6 µM (inactive),> 100 µM (inactive),> 100 µM (inactive),43 µM (inactive),31.3 µM (inactive),72.3 µM (inactive),42.3 µM (inactive),> 100 µM (inactive),> 100 µM (inactive),> 100 µM (inactive),> 100 µM (inactive),73.8 µM (inactive),30.3 µM (inactive),48.3 µM (inactive),23.2 µM (inactive),90.4 µM (inactive),85.3 µM (inactive)
COC(=O)[C@@H]1C[C@H]([Se]c2ccccc2)CN1C(=O)OCc1ccccc1,41.7 µM (inactive),31.2 µM (inactive),22.9 µM (inactive),34.1 µM (inactive),98.6 µM (inactive),26 µM (inactive),26.8 µM (inactive),20 µM (inactive),19.2 µM (inactive),22 µM (inactive),39.2 µM (inactive),24 µM (inactive),24.8 µM (inactive),> 100 µM (inactive),30.3 µM (inactive),26.1 µM (inactive),52.6 µM (inactive),16 µM (inactive),35.2 µM (inactive),24.4 µM (inactive)
Cn1c2cc(Cl)ccc2c2ccc3c(c21)C(=O)C=CC3=O,18.8 µM (inactive),68.7 µM (inactive),25.6 µM (inactive),20.8 µM (inactive),> 100 µM (inactive),31.4 µM (inactive),3.4 µM (inactive),13.8 µM (inactive),26.1 µM (inactive),2.75 µM (inactive),> 52.4 µM (inactive),11.7 µM (inactive),20.7 µM (inactive),86.5 µM (inactive),25.8 µM (inactive),6.07 µM (inactive),4.4 µM (inactive),14.1 µM (inactive),45.9 µM (inactive),45.7 µM (inactive)
O=C1/C(=C/c2ccccc2)CCC/C1=C\c1ccc(O)c(CN2CCCCC2)c1,1.69 µM (inactive),5.37 µM (inactive),2.84 µM (inactive),1.57 µM (inactive),13.5 µM (inactive),1.77 µM (inactive),3.27 µM (inactive),4.32 µM (inactive),2.56 µM (inactive),3.1 µM (inactive),2.69 µM (inactive),6.98 µM (inactive),5.5 µM (inactive),15.3 µM (inactive),4.56 µM (inactive),1.05 µM (active),2.39 µM (inactive),4.88 µM (inactive),3.17 µM (inactive),6.92 µM (inactive)
CN(C)CCCCN1c2ccccc2Sc2cc(N=[N+]=[N-])ccc21,1.69 µM (inactive),10 µM (inactive),11 µM (inactive),1.78 µM (inactive),2.28 µM (inactive),1.55 µM (inactive),1.88 µM (inactive),1.85 µM (inactive),1.72 µM (inactive),1.93 µM (inactive),1.75 µM (inactive),1.89 µM (inactive),2.4 µM (inactive),1.89 µM (inactive),1.86 µM (inactive),2.54 µM (inactive),1.87 µM (inactive),1.94 µM (inactive),2.04 µM (inactive),1.83 µM (inactive)
COc1cc2ncnc(NS(=O)(=O)c3cc4ccccc4s3)c2cc1OC,> 100 µM (inactive),56.4 µM (inactive),> 100 µM (inactive),> 100 µM (inactive),> 100 µM (inactive),> 100 µM (inactive),56.1 µM (inactive),> 100 µM (inactive),> 100 µM (inactive),> 100 µM (inactive),> 100 µM (inactive),> 100 µM (inactive),92.7 µM (inactive),> 100 µM (inactive),> 100 µM (inactive),> 100 µM (inactive),> 100 µM (inactive),25.2 µM (inactive),> 100 µM (inactive),76 µM (inactive)
N#CC1=C(N)OC2=C(CCCc3ccc([N+](=O)[O-])cc32)C1c1ccccc1 (stereo not given),9.98 µM (inactive),2.76 µM (inactive),4.5 µM (inactive),4.23 µM (inactive),4.17 µM (inactive),3.44 µM (inactive),2.57 µM (inactive),3.45 µM (inactive),2.09 µM (inactive),3.69 µM (inactive),2.38 µM (inactive),2.21 µM (inactive),6.41 µM (inactive),11 µM (inactive),8.3 µM (inactive),2.36 µM (inactive),3.63 µM (inactive),6.24 µM (inactive),4.71 µM (inactive),8.79 µM (inactive)
CO/C(N)=C(C#N)/N=C/c1ccccc1,> 100 µM (inactive),> 100 µM (inactive),> 100 µM (inactive),> 100 µM (inactive),> 100 µM (inactive),51.3 µM (inactive),58.6 µM (inactive),31.8 µM (inactive),> 100 µM (inactive),> 100 µM (inactive),> 100 µM (inactive),> 100 µM (inactive),71 µM (inactive),> 100 µM (inactive),> 100 µM (inactive),> 100 µM (inactive),> 100 µM (inactive),> 100 µM (inactive),> 100 µM (inactive),89.5 µM (inactive)
Nc1nc(Cl)cc(NCC2(CO)CC(Cc3ccccc3)C2)n1 (stereo not given),> 60.8 µM (inactive),10.1 µM (inactive),20.4 µM (inactive),5.81 µM (inactive),> 66.5 µM (inactive),29 µM (inactive),2.92 µM (inactive),11.2 µM (inactive),25.1 µM (inactive),16.5 µM (inactive),9.73 µM (inactive),51.9 µM (inactive),24.2 µM (inactive),> 58.7 µM (inactive),30.6 µM (inactive),9.27 µM (inactive),> 65.6 µM (inactive),1.34 µM (inactive),27.9 µM (inactive),23.4 µM (inactive)
COc1cc(CCNC2=CC(=O)c3cccnc3C2=O)ccc1O,1.37 µM (inactive),2.6 µM (inactive),1.37 µM (inactive),1.84 µM (inactive),1.32 µM (inactive),1.97 µM (inactive),0.483 µM (active),0.16 µM (active),0.167 µM (active),4.09 µM (inactive),2.55 µM (inactive),2.04 µM (inactive),1.92 µM (inactive),1.63 µM (inactive),2.76 µM (inactive),1.87 µM (inactive),1.4 µM (inactive),8.51 µM (inactive),0.766 µM (active),0.916 µM (active)
CC1(C)OC(=S)N(c2ccccc2)C12C=Cc1ccccc1O2 (stereo not given),> 100 µM (inactive),> 100 µM (inactive),79.3 µM (inactive),36.6 µM (inactive),> 100 µM (inactive),56.6 µM (inactive),29.1 µM (inactive),61.1 µM (inactive),39.5 µM (inactive),22.5 µM (inactive),53.5 µM (inactive),> 100 µM (inactive),33.4 µM (inactive),> 100 µM (inactive),41.7 µM (inactive),4.26 µM (inactive),72.3 µM (inactive),20.5 µM (inactive),> 100 µM (inactive),45.6 µM (inactive)
O=C1c2c(nc3ccccc3c2-c2ccccc2)CN1Nc1ccccn1,> 74.5 µM (inactive),5.32 µM (inactive),> 79.1 µM (inactive),79.8 µM (inactive),72.6 µM (inactive),> 100 µM (inactive),83.4 µM (inactive),> 70 µM (inactive),> 100 µM (inactive),71.4 µM (inactive),43 µM (inactive),75 µM (inactive),> 80.7 µM (inactive),> 100 µM (inactive),> 89.7 µM (inactive),58.1 µM (inactive),> 100 µM (inactive),> 68.4 µM (inactive),66.7 µM (inactive),13.8 µM (inactive)
O=[N+]([O-])c1ccc(Sc2c3ccccc3nc3ccccc23)nc1,2.2 µM (inactive),18.5 µM (inactive),14.1 µM (inactive),2.09 µM (inactive),23.3 µM (inactive),3.06 µM (inactive),2.08 µM (inactive),3.79 µM (inactive),5.12 µM (inactive),2.75 µM (inactive),19 µM (inactive),5.74 µM (inactive),4.69 µM (inactive),18.6 µM (inactive),14.8 µM (inactive),2.47 µM (inactive),2.08 µM (inactive),2.57 µM (inactive),24.3 µM (inactive),5.08 µM (inactive)
